In the NIST ThermoML archive (doi:10.1016/j.fluid.2015.09.010):

Assay: xn = mol fraction of the nth substance listed
Settings: Gas, single sinker densimeter

F/C=C/C(F)(F)F [trans-1,3,3,3-tetrafluoropropene] + CCC
Settings | mass density [kg/m3]
258.15 K, 100.61 kPa, x1 = 0.3426 | 3.2856
258.15 K, 196.38 kPa, x1 = 0.168 | 5.3883
258.15 K, 283.13 kPa, x1 = 0.168 | 7.9775
258.16 K, 100.07 kPa, x1 = 0.168 | 2.6751
258.16 K, 161.36 kPa, x1 = 0.3426 | 5.3604
258.18 K, 242.52 kPa, x1 = 0.3426 | 8.2589
263.19 K, 101.37 kPa, x1 = 0.3426 | 3.2412
263.19 K, 283.01 kPa, x1 = 0.3426 | 9.5248
263.2 K, 100.13 kPa, x1 = 0.168 | 2.6195
263.2 K, 200.66 kPa, x1 = 0.3426 | 6.5891
263.2 K, 209.39 kPa, x1 = 0.168 | 5.6353
263.2 K, 326.36 kPa, x1 = 0.168 | 9.0877
263.21 K, 228.28 kPa, x1 = 0.5076 | 8.8723
263.22 K, 100.69 kPa, x1 = 0.5076 | 3.7656
263.22 K, 168.02 kPa, x1 = 0.5076 | 6.4065
268.16 K, 332.61 kPa, x1 = 0.3431 | 11.1032
268.16 K, 332.62 kPa, x1 = 0.3431 | 11.1044
268.17 K, 101.25 kPa, x1 = 0.168 | 2.5987
268.17 K, 101.55 kPa, x1 = 0.679 | 4.2921
268.17 K, 164.37 kPa, x1 = 0.679 | 7.0737
268.17 K, 201.77 kPa, x1 = 0.3431 | 6.4883
268.17 K, 227.73 kPa, x1 = 0.679 | 9.9973
268.18 K, 202.12 kPa, x1 = 0.5076 | 7.6182
268.18 K, 248.05 kPa, x1 = 0.168 | 6.5968
268.18 K, 396.76 kPa, x1 = 0.168 | 11.0064
268.19 K, 101.5 kPa, x1 = 0.3431 | 3.1825
268.19 K, 104.3 kPa, x1 = 0.5076 | 3.83
268.2 K, 297.38 kPa, x1 = 0.5076 | 11.5325
273.16 K, 335.7 kPa, x1 = 0.168 | 8.9351
273.16 K, 451.06 kPa, x1 = 0.168 | 12.3973
273.17 K, 100.67 kPa, x1 = 0.3426 | 3.0918
273.17 K, 101.01 kPa, x1 = 0.168 | 2.541
273.17 K, 239.94 kPa, x1 = 0.3426 | 7.62
273.18 K, 102.27 kPa, x1 = 0.5076 | 3.6758
273.18 K, 200.45 kPa, x1 = 0.5076 | 7.3826
273.18 K, 209.57 kPa, x1 = 0.168 | 5.4023
273.18 K, 354.79 kPa, x1 = 0.5076 | 13.6621
273.18 K, 373.24 kPa, x1 = 0.3426 | 12.2939
273.18 K, 413.03 kPa, x1 = 0.3426 | 13.7671
273.2 K, 100.65 kPa, x1 = 0.679 | 4.1755
273.2 K, 206.18 kPa, x1 = 0.679 | 8.804
273.21 K, 292.51 kPa, x1 = 0.679 | 12.8266
278.16 K, 417.17 kPa, x1 = 0.3431 | 13.5784
278.17 K, 309.55 kPa, x1 = 0.3431 | 9.7917
278.18 K, 526.01 kPa, x1 = 0.168 | 14.3898
278.19 K, 99.65 kPa, x1 = 0.5076 | 3.5099
278.19 K, 100.62 kPa, x1 = 0.3431 | 3.0318
278.19 K, 101.41 kPa, x1 = 0.168 | 2.5025
278.19 K, 191.78 kPa, x1 = 0.5076 | 6.9037
278.19 K, 198.9 kPa, x1 = 0.3431 | 6.1248
278.19 K, 207 kPa, x1 = 0.168 | 5.2225
278.19 K, 297.09 kPa, x1 = 0.5076 | 10.9954
278.19 K, 309.62 kPa, x1 = 0.168 | 7.9983
278.19 K, 399.16 kPa, x1 = 0.5076 | 15.2118
278.19 K, 401.11 kPa, x1 = 0.168 | 10.6025
278.2 K, 223.87 kPa, x1 = 0.679 | 9.3941
278.21 K, 100.47 kPa, x1 = 0.679 | 4.0836
278.21 K, 100.48 kPa, x1 = 0.8949 | 4.7788
278.21 K, 170.26 kPa, x1 = 0.8949 | 8.2642
278.21 K, 223.89 kPa, x1 = 0.679 | 9.3939
278.21 K, 278.18 kPa, x1 = 0.8949 | 13.9927
278.22 K, 349.38 kPa, x1 = 0.679 | 15.2188
283.16 K, 205.37 kPa, x1 = 0.3426 | 6.1995
283.16 K, 338.25 kPa, x1 = 0.3426 | 10.53
283.17 K, 101.18 kPa, x1 = 0.3426 | 2.9879
283.17 K, 449.59 kPa, x1 = 0.3426 | 14.3925
283.18 K, 580.09 kPa, x1 = 0.3426 | 19.2575
283.19 K, 100.44 kPa, x1 = 0.168 | 2.4312
